# Source: article PMC6364417, “Kinase inhibitor library screening identifies synergistic drug combinations effective in sensitive and resistant melanoma cells” (Journal of Experimental & Clinical Cancer Research : CR, 2019)
# How the values were obtained:
# Test in all cases: Kinase inhibitor library screening, PrestoBlue cell viability, 1 or 10 μM, 72 h
# [1] = test system: A375-XP cells (Vemurafenib-resistant); details: A375 XP, 72 h
# 501Mel cells (parental) = details: 501Mel Parental, 72 h; for Cell viability in kinase inhibitor library screening, 501Mel Parental, 1μΜ / Cell viability in kinase inhibitor library screening, 501Mel Parental, 10μΜ: in %
# Outline: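 Single-point screen at two doses over three days. Parental and BRAF-inhibitor-resistant sublines (XP: Vemurafenib; GP: Dabrafenib) were assessed by PrestoBlue viability, reported relative to untreated cells.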
# IGR37 cells (parental) = details: IGR37 Parental, 72 h; for Cell viability in kinase inhibitor library screening, IGR37 Parental, 1μΜ / Cell viability in kinase inhibitor library screening, IGR37 Parental, 10μΜ: in %
# [2] = test system: A375-GP cells (Dabrafenib-resistant); details: A375 GP, 72 h
# [3] = test system: IGR37-XP cells (Vemurafenib-resistant); details: IGR37 XP, 72 h; for Cell viability in kinase inhibitor library screening, IGR37 XP, 1μΜ: in %
# A375 cells (parental) = details: A375 Parental, 72 h
# [4] = test system: 501Mel-GP cells (Dabrafenib-resistant); details: 501Mel GP, 72 h; for Cell viability in kinase inhibitor library screening, 501Mel GP, 1μΜ / Cell viability in kinase inhibitor library screening, 501Mel GP, 10μΜ: in %
# [5] = test system: IGR37-GP cells (Dabrafenib-resistant); details: IGR37 GP, 72 h; for Cell viability in kinase inhibitor library screening, IGR37 GP, 1μΜ: in %
# [6] = test system: 501Mel-XP cells (Vemurafenib-resistant); details: 501Mel XP, 72 h; for Cell viability in kinase inhibitor library screening, 501Mel XP, 1μΜ / Cell viability in kinase inhibitor library screening, 501Mel XP, 10μΜ: in %
smiles,measurement,setting,value
"COc1cc2c(Oc3ccc(NC(=O)C4(C(=O)Nc5ccc(F)cc5)CC4)cc3F)ccnc2cc1OCCCN1CCOCC1 [Foretinib (GSK1363089, XL880)]",cell viability (kinase inhibitor library screening),[1]; 1μΜ,75.2%
same,cell viability (kinase inhibitor library screening),[1]; 10μΜ,0.7%
same,cell viability (kinase inhibitor library screening),501Mel cells (parental); 1μΜ,84.1%
same,cell viability (kinase inhibitor library screening),501Mel cells (parental); 10μΜ,0.153%
same,cell viability (kinase inhibitor library screening),IGR37 cells (parental); 1μΜ,85.9%
same,cell viability (kinase inhibitor library screening),IGR37 cells (parental); 10μΜ,0.2%
same,cell viability (kinase inhibitor library screening),[2]; 1μΜ,67.2%
same,cell viability (kinase inhibitor library screening),[2]; 10μΜ,0.464%
same,cell viability (kinase inhibitor library screening),[3]; 1μΜ,81.8%
same,cell viability (kinase inhibitor library screening),[3]; 10μΜ,0.556%
same,cell viability (kinase inhibitor library screening),A375 cells (parental); 10μΜ,0.654%
same,cell viability (kinase inhibitor library screening),A375 cells (parental); 1μΜ,71.0%
same,cell viability (kinase inhibitor library screening),[4]; 1μΜ,64.6%
same,cell viability (kinase inhibitor library screening),[4]; 10μΜ,-0.6%
same,cell viability (kinase inhibitor library screening),[5]; 1μΜ,91.3%
same,cell viability (kinase inhibitor library screening),[5]; 10μΜ,0.8%
same,cell viability (kinase inhibitor library screening),[6]; 1μΜ,47.0%
same,cell viability (kinase inhibitor library screening),[6]; 10μΜ,-0.9%
CC(C)NC[C@@H](C(=O)N1CCN(c2ncnc3c2[C@H](C)C[C@H]3O)CC1)c1ccc(Cl)cc1 [GDC-0068],cell viability (kinase inhibitor library screening),[1]; 10μΜ,85.5%
same,cell viability (kinase inhibitor library screening),501Mel cells (parental); 1μΜ,103.4%
same,cell viability (kinase inhibitor library screening),501Mel cells (parental); 10μΜ,81.6%
same,cell viability (kinase inhibitor library screening),IGR37 cells (parental); 1μΜ,102.7%
same,cell viability (kinase inhibitor library screening),IGR37 cells (parental); 10μΜ,90.8%
same,cell viability (kinase inhibitor library screening),[2]; 10μΜ,79.9%
same,cell viability (kinase inhibitor library screening),[3]; 1μΜ,95.3%
same,cell viability (kinase inhibitor library screening),[3]; 10μΜ,23.8%
same,cell viability (kinase inhibitor library screening),A375 cells (parental); 10μΜ,77.7%
same,cell viability (kinase inhibitor library screening),A375 cells (parental); 1μΜ,104.3%
same,cell viability (kinase inhibitor library screening),[4]; 1μΜ,92.7%
same,cell viability (kinase inhibitor library screening),[4]; 10μΜ,56.7%
same,cell viability (kinase inhibitor library screening),[5]; 1μΜ,97.0%
same,cell viability (kinase inhibitor library screening),[5]; 10μΜ,79.0%
same,cell viability (kinase inhibitor library screening),[6]; 1μΜ,85.0%
same,cell viability (kinase inhibitor library screening),[6]; 10μΜ,36.9%
OCCn1cc(-c2ccc3c(c2)CC/C3=N\O)c(-c2ccncc2)n1 [GDC-0879],"Cell viability in kinase inhibitor library screening, A375 XP, 1μΜ",[1]; 1μΜ,91.2
same,"Cell viability in kinase inhibitor library screening, A375 XP, 10μΜ",[1]; 10μΜ,47.1
same,"Cell viability in kinase inhibitor library screening, 501Mel Parental, 1μΜ",501Mel cells (parental); 1μΜ,79.0
same,"Cell viability in kinase inhibitor library screening, 501Mel Parental, 10μΜ",501Mel cells (parental); 10μΜ,63.5
same,"Cell viability in kinase inhibitor library screening, IGR37 Parental, 1μΜ",IGR37 cells (parental); 1μΜ,66.4
same,"Cell viability in kinase inhibitor library screening, IGR37 Parental, 10μΜ",IGR37 cells (parental); 10μΜ,27.4
same,"Cell viability in kinase inhibitor library screening, A375 GP, 1μΜ",[2]; 1μΜ,85.8
same,"Cell viability in kinase inhibitor library screening, A375 GP, 10μΜ",[2]; 10μΜ,44.0
same,"Cell viability in kinase inhibitor library screening, IGR37 XP, 10μΜ",[3]; 10μΜ,60.4%
same,"Cell viability in kinase inhibitor library screening, IGR37 XP, 1μΜ",[3]; 1μΜ,110.2
same,"Cell viability in kinase inhibitor library screening, A375 Parental, 10μΜ",A375 cells (parental); 10μΜ,28.9
same,"Cell viability in kinase inhibitor library screening, A375 Parental, 1μΜ",A375 cells (parental); 1μΜ,49.6
same,"Cell viability in kinase inhibitor library screening, 501Mel GP, 1μΜ",[4]; 1μΜ,108.3
same,"Cell viability in kinase inhibitor library screening, 501Mel GP, 10μΜ",[4]; 10μΜ,94.0
same,"Cell viability in kinase inhibitor library screening, IGR37 GP, 10μΜ",[5]; 10μΜ,88.9%
same,"Cell viability in kinase inhibitor library screening, IGR37 GP, 1μΜ",[5]; 1μΜ,99.1
same,"Cell viability in kinase inhibitor library screening, 501Mel XP, 1μΜ",[6]; 1μΜ,97.9
same,"Cell viability in kinase inhibitor library screening, 501Mel XP, 10μΜ",[6]; 10μΜ,89.8
Cc1c(CN2CCN(C(=O)[C@H](C)O)CC2)sc2c(N3CCOCC3)nc(-c3cnc(N)nc3)nc12 [GDC-0980 (RG7422)],"Cell viability in kinase inhibitor library screening, A375 XP, 1μΜ",[1]; 1μΜ,31.2
same,"Cell viability in kinase inhibitor library screening, A375 XP, 10μΜ",[1]; 10μΜ,3.3
same,"Cell viability in kinase inhibitor library screening, 501Mel Parental, 1μΜ",501Mel cells (parental); 1μΜ,19.3
same,"Cell viability in kinase inhibitor library screening, 501Mel Parental, 10μΜ",501Mel cells (parental); 10μΜ,1.0
same,"Cell viability in kinase inhibitor library screening, IGR37 Parental, 1μΜ",IGR37 cells (parental); 1μΜ,35.3
same,"Cell viability in kinase inhibitor library screening, IGR37 Parental, 10μΜ",IGR37 cells (parental); 10μΜ,2.0
same,"Cell viability in kinase inhibitor library screening, A375 GP, 1μΜ",[2]; 1μΜ,33.1
same,"Cell viability in kinase inhibitor library screening, A375 GP, 10μΜ",[2]; 10μΜ,4.0
same,"Cell viability in kinase inhibitor library screening, IGR37 XP, 10μΜ",[3]; 10μΜ,1.5%
same,"Cell viability in kinase inhibitor library screening, IGR37 XP, 1μΜ",[3]; 1μΜ,21.6
same,"Cell viability in kinase inhibitor library screening, A375 Parental, 10μΜ",A375 cells (parental); 10μΜ,2.2
same,"Cell viability in kinase inhibitor library screening, A375 Parental, 1μΜ",A375 cells (parental); 1μΜ,22.3
same,"Cell viability in kinase inhibitor library screening, 501Mel GP, 1μΜ",[4]; 1μΜ,21.4
same,"Cell viability in kinase inhibitor library screening, 501Mel GP, 10μΜ",[4]; 10μΜ,5.1
same,"Cell viability in kinase inhibitor library screening, IGR37 GP, 10μΜ",[5]; 10μΜ,2.9%
same,"Cell viability in kinase inhibitor library screening, IGR37 GP, 1μΜ",[5]; 1μΜ,58.6
same,"Cell viability in kinase inhibitor library screening, 501Mel XP, 1μΜ",[6]; 1μΜ,15.9
same,"Cell viability in kinase inhibitor library screening, 501Mel XP, 10μΜ",[6]; 10μΜ,0.8
